Measurements: the NIST ThermoML archive (doi:10.1021/je060415l)

Conditions: Liquid, expansion method

CO [methanol]
Conditions | isothermal compressibility
208.17 K, 390 kPa | 7.15e-07 1/kPa
208.17 K, 2110 kPa | 6.78e-07 1/kPa
208.17 K, 5020 kPa | 6.63e-07 1/kPa
208.17 K, 7970 kPa | 6.47e-07 1/kPa
208.17 K, 10910 kPa | 6.37e-07 1/kPa
208.17 K, 13880 kPa | 6.24e-07 1/kPa
208.17 K, 16980 kPa | 6.12e-07 1/kPa
208.17 K, 20090 kPa | 6.02e-07 1/kPa
208.17 K, 23230 kPa | 5.9e-07 1/kPa
208.17 K, 30160 kPa | 5.68e-07 1/kPa
208.17 K, 33540 kPa | 5.57e-07 1/kPa
208.17 K, 37190 kPa | 5.46e-07 1/kPa
208.17 K, 41120 kPa | 5.34e-07 1/kPa
208.17 K, 45130 kPa | 5.26e-07 1/kPa
208.17 K, 49210 kPa | 5.15e-07 1/kPa
208.17 K, 53370 kPa | 5.04e-07 1/kPa
208.17 K, 57610 kPa | 4.95e-07 1/kPa
208.17 K, 61920 kPa | 4.85e-07 1/kPa
208.17 K, 66300 kPa | 4.78e-07 1/kPa
208.17 K, 70740 kPa | 4.7e-07 1/kPa
208.17 K, 75250 kPa | 4.6e-07 1/kPa
208.17 K, 79850 kPa | 4.53e-07 1/kPa
208.17 K, 84300 kPa | 4.48e-07 1/kPa
208.17 K, 88600 kPa | 4.41e-07 1/kPa
208.17 K, 92960 kPa | 4.35e-07 1/kPa
208.17 K, 97910 kPa | 4.18e-07 1/kPa
223.17 K, 1060 kPa | 7.59e-07 1/kPa
223.17 K, 3160 kPa | 7.44e-07 1/kPa
223.17 K, 5540 kPa | 7.28e-07 1/kPa
223.17 K, 8010 kPa | 7.14e-07 1/kPa
223.17 K, 10640 kPa | 7.01e-07 1/kPa
223.17 K, 13500 kPa | 6.84e-07 1/kPa
223.17 K, 16660 kPa | 6.62e-07 1/kPa
223.17 K, 19820 kPa | 6.59e-07 1/kPa
223.17 K, 22850 kPa | 6.45e-07 1/kPa
223.17 K, 25930 kPa | 6.33e-07 1/kPa
223.17 K, 29040 kPa | 6.2e-07 1/kPa
223.17 K, 32210 kPa | 6.08e-07 1/kPa
223.17 K, 35450 kPa | 5.98e-07 1/kPa
223.17 K, 38770 kPa | 5.87e-07 1/kPa
223.17 K, 42230 kPa | 5.74e-07 1/kPa
223.17 K, 45780 kPa | 5.66e-07 1/kPa
223.17 K, 49400 kPa | 5.55e-07 1/kPa
223.17 K, 53080 kPa | 5.45e-07 1/kPa
223.17 K, 56960 kPa | 5.3e-07 1/kPa
223.17 K, 61040 kPa | 5.23e-07 1/kPa
223.17 K, 65060 kPa | 5.15e-07 1/kPa
223.17 K, 69050 kPa | 5.06e-07 1/kPa
223.17 K, 73000 kPa | 4.98e-07 1/kPa
223.17 K, 76980 kPa | 4.9e-07 1/kPa
223.17 K, 81110 kPa | 4.82e-07 1/kPa
223.17 K, 85330 kPa | 4.72e-07 1/kPa
223.17 K, 89630 kPa | 4.66e-07 1/kPa
223.17 K, 94200 kPa | 4.54e-07 1/kPa
223.17 K, 98850 kPa | 4.51e-07 1/kPa
248.19 K, 1680 kPa | 8.6e-07 1/kPa
248.19 K, 4590 kPa | 8.53e-07 1/kPa
248.19 K, 7250 kPa | 8.36e-07 1/kPa
248.19 K, 9880 kPa | 8.18e-07 1/kPa
248.19 K, 12580 kPa | 8.01e-07 1/kPa
248.19 K, 15470 kPa | 7.74e-07 1/kPa
248.19 K, 18450 kPa | 7.62e-07 1/kPa
248.19 K, 21360 kPa | 7.48e-07 1/kPa
248.19 K, 24330 kPa | 7.3e-07 1/kPa
248.19 K, 27310 kPa | 7.19e-07 1/kPa
248.19 K, 30180 kPa | 7.07e-07 1/kPa
248.19 K, 33000 kPa | 6.92e-07 1/kPa
248.19 K, 35670 kPa | 6.84e-07 1/kPa
248.19 K, 38600 kPa | 6.64e-07 1/kPa
248.19 K, 41780 kPa | 6.56e-07 1/kPa
248.19 K, 44760 kPa | 6.45e-07 1/kPa
248.19 K, 47880 kPa | 6.33e-07 1/kPa
248.19 K, 51230 kPa | 6.19e-07 1/kPa
248.19 K, 54640 kPa | 6.09e-07 1/kPa
248.19 K, 57930 kPa | 5.99e-07 1/kPa
248.19 K, 61270 kPa | 5.85e-07 1/kPa
248.19 K, 64800 kPa | 5.75e-07 1/kPa
248.19 K, 68310 kPa | 5.66e-07 1/kPa
248.19 K, 71740 kPa | 5.57e-07 1/kPa
248.19 K, 75070 kPa | 5.49e-07 1/kPa
248.19 K, 78410 kPa | 5.41e-07 1/kPa
248.19 K, 81890 kPa | 5.31e-07 1/kPa
248.19 K, 85380 kPa | 5.25e-07 1/kPa
248.19 K, 88990 kPa | 5.18e-07 1/kPa
248.19 K, 92540 kPa | 5.18e-07 1/kPa
248.19 K, 96400 kPa | 5e-07 1/kPa
248.19 K, 100840 kPa | 4.9e-07 1/kPa
263.17 K, 1420 kPa | 9.64e-07 1/kPa
263.17 K, 3920 kPa | 9.42e-07 1/kPa
263.17 K, 6360 kPa | 9.2e-07 1/kPa
263.17 K, 8840 kPa | 9.02e-07 1/kPa
263.17 K, 11360 kPa | 8.82e-07 1/kPa
263.17 K, 13920 kPa | 8.62e-07 1/kPa
263.17 K, 16580 kPa | 8.42e-07 1/kPa
263.17 K, 19270 kPa | 8.26e-07 1/kPa
263.17 K, 22000 kPa | 8.07e-07 1/kPa
263.17 K, 24860 kPa | 7.88e-07 1/kPa
263.17 K, 27740 kPa | 7.73e-07 1/kPa
263.17 K, 30600 kPa | 7.56e-07 1/kPa
263.17 K, 33550 kPa | 7.41e-07 1/kPa
263.17 K, 36560 kPa | 7.26e-07 1/kPa
263.17 K, 39590 kPa | 7.11e-07 1/kPa
263.17 K, 42670 kPa | 6.97e-07 1/kPa
263.17 K, 45790 kPa | 6.84e-07 1/kPa
263.17 K, 48960 kPa | 6.72e-07 1/kPa
263.17 K, 52170 kPa | 6.58e-07 1/kPa
263.17 K, 55430 kPa | 6.46e-07 1/kPa
263.17 K, 58830 kPa | 6.32e-07 1/kPa
263.17 K, 62280 kPa | 6.21e-07 1/kPa
263.17 K, 65720 kPa | 6.12e-07 1/kPa
263.17 K, 69340 kPa | 5.97e-07 1/kPa
263.17 K, 73030 kPa | 5.88e-07 1/kPa
263.17 K, 76640 kPa | 5.78e-07 1/kPa
263.17 K, 80310 kPa | 5.68e-07 1/kPa
263.17 K, 84120 kPa | 5.57e-07 1/kPa
263.17 K, 88070 kPa | 5.47e-07 1/kPa
263.17 K, 92050 kPa | 5.52e-07 1/kPa
263.17 K, 95980 kPa | 5.33e-07 1/kPa
263.17 K, 100060 kPa | 5.22e-07 1/kPa
273.17 K, 1010 kPa | 1.05e-06 1/kPa
273.17 K, 3000 kPa | 1.02e-06 1/kPa
273.17 K, 5050 kPa | 1e-06 1/kPa
273.17 K, 7100 kPa | 9.82e-07 1/kPa
273.17 K, 9170 kPa | 9.62e-07 1/kPa
273.17 K, 11220 kPa | 9.47e-07 1/kPa
273.17 K, 13320 kPa | 9.25e-07 1/kPa
273.17 K, 15430 kPa | 9.12e-07 1/kPa
273.17 K, 17510 kPa | 8.9e-07 1/kPa
273.17 K, 19750 kPa | 8.72e-07 1/kPa
273.17 K, 22140 kPa | 8.56e-07 1/kPa
273.17 K, 24880 kPa | 8.26e-07 1/kPa
273.17 K, 27900 kPa | 8.1e-07 1/kPa
273.17 K, 30870 kPa | 7.91e-07 1/kPa
273.17 K, 38720 kPa | 7.29e-07 1/kPa
273.17 K, 42290 kPa | 7.21e-07 1/kPa
273.17 K, 45710 kPa | 7.11e-07 1/kPa
273.17 K, 49180 kPa | 6.92e-07 1/kPa
273.17 K, 52690 kPa | 6.79e-07 1/kPa
273.17 K, 55980 kPa | 6.73e-07 1/kPa
273.17 K, 59210 kPa | 6.57e-07 1/kPa
273.17 K, 62510 kPa | 6.46e-07 1/kPa
273.17 K, 65790 kPa | 6.35e-07 1/kPa
273.17 K, 69160 kPa | 6.24e-07 1/kPa
273.17 K, 72680 kPa | 6.19e-07 1/kPa
273.17 K, 76170 kPa | 6.02e-07 1/kPa
273.17 K, 79630 kPa | 5.9e-07 1/kPa
273.17 K, 83150 kPa | 5.82e-07 1/kPa
273.17 K, 86550 kPa | 5.73e-07 1/kPa
273.17 K, 90030 kPa | 5.63e-07 1/kPa
273.17 K, 94000 kPa | 5.47e-07 1/kPa
273.17 K, 98210 kPa | 5.44e-07 1/kPa
298.16 K, 740 kPa | 1.27e-06 1/kPa
298.16 K, 2360 kPa | 1.22e-06 1/kPa
298.16 K, 4230 kPa | 1.19e-06 1/kPa
298.16 K, 6090 kPa | 1.17e-06 1/kPa
298.16 K, 7970 kPa | 1.14e-06 1/kPa
298.16 K, 9920 kPa | 1.12e-06 1/kPa
298.16 K, 11950 kPa | 1.09e-06 1/kPa
298.16 K, 14020 kPa | 1.06e-06 1/kPa
298.16 K, 16080 kPa | 1.04e-06 1/kPa
298.16 K, 18190 kPa | 1.02e-06 1/kPa
298.16 K, 20320 kPa | 1e-06 1/kPa
298.16 K, 22490 kPa | 9.82e-07 1/kPa
298.16 K, 24710 kPa | 9.59e-07 1/kPa
298.16 K, 26990 kPa | 9.37e-07 1/kPa
298.16 K, 29290 kPa | 9.23e-07 1/kPa
298.16 K, 31700 kPa | 8.99e-07 1/kPa
298.16 K, 34090 kPa | 8.85e-07 1/kPa
298.16 K, 36550 kPa | 8.65e-07 1/kPa
298.16 K, 39120 kPa | 8.47e-07 1/kPa
298.16 K, 41740 kPa | 8.3e-07 1/kPa
298.16 K, 44450 kPa | 8.14e-07 1/kPa
298.16 K, 47180 kPa | 7.96e-07 1/kPa
298.16 K, 49870 kPa | 7.83e-07 1/kPa
298.16 K, 52590 kPa | 7.68e-07 1/kPa
298.16 K, 55320 kPa | 7.57e-07 1/kPa
298.16 K, 58040 kPa | 7.43e-07 1/kPa
298.16 K, 60870 kPa | 7.28e-07 1/kPa
298.16 K, 63900 kPa | 7.14e-07 1/kPa
298.16 K, 66990 kPa | 7.03e-07 1/kPa
298.16 K, 69960 kPa | 6.89e-07 1/kPa
298.16 K, 73410 kPa | 6.65e-07 1/kPa
298.16 K, 77320 kPa | 6.55e-07 1/kPa
298.16 K, 80990 kPa | 6.49e-07 1/kPa
298.16 K, 84450 kPa | 6.37e-07 1/kPa
298.16 K, 87890 kPa | 6.41e-07 1/kPa
298.16 K, 91290 kPa | 6.17e-07 1/kPa
298.16 K, 94830 kPa | 6.05e-07 1/kPa
298.16 K, 98440 kPa | 6.02e-07 1/kPa
